Assay results taken from patent US11566047B2, “Peptide or pharmaceutically acceptable salt thereof, or prodrug thereof” (TOKYO UNIVERSITY OF PHARMACY & LIFE SCIENCES, priority 2016, dated 2023).
R111 = not defined here

Tested on: anterior tibial muscles of mdx mice
Test: Influence on anterior tibial muscles of Duchenne muscular dystrophy model mdx mice (muscle weight)
Format: in vivo
Settings: mdx male mice aged 5 weeks; 40 μL of 0.75 mM intramuscular, again after 2 weeks; necropsy after further 4 weeks; vs saline leg; average of three mice
Protocol: Regarding PDM-46 prepared in Synthesis Example 18, evaluation was performed by the following method in order to check the muscle mass increasing effect in vivo.
PDM-46 was dissolved in saline to become 0.75 mM. 40 μL of PDM-46 was intramuscularly administered into the left leg anterior tibial muscles of anesthetized mdx male mice aged 5 weeks (purchased from CLEA Japan, Inc.) (as a control, 40 μL of saline was intramuscularly administered into the right leg anterior tibial muscles). After 2 weeks, the same amount of PDM-46 was administered to the same site again. After further 4 weeks, the mice were subjected to necropsy, the anterior tibial muscles were excised from the both legs, and the weight thereof was measured.

R^111-WYIESIKIQIISKLRL-NH2 (R111-WYIESIKIQIISKLRL-NH2; reading uncertain; also: printed as R^111-WYIESIKIQIISKLRL-NH2) [PDM-46, R^111 = group of Formula (4), drawing 8]
increase of muscle mass of anterior tibial muscles in terms of weight: about 13%
